Results published in patent US20050226924A1, “Composition comprising itraconazole for oral administration” (priority 2004, published 2005).
Values after ≈ are worked out from the molar mass of the structure shown.

What was measured:
[1] = cited from earlier work
[2] = Solubility test in dissolution medium (pH 1.2); assay type: physicochemical; conditions: dissolution medium (pH 1.2) of Korea Pharmacopeia, simulated gastric fluid, thermodynamic from solid; dissolution medium pH 1.2, shaken at 25° C. for 24 hours, HPLC; Mean ± SD, n = 3
Experimental: Samples, equivalent to 30 mg of itraconazole, was added to […] of the test solution. The test solution used was the dissolution medium (pH 1.2) for dissolution test of Korea Pharmacopeia. After the samples were ultrasonicated for 30 minutes, they were shaked at 25° C. for 24 hours. Then, they were centrifuged at 3000 rpm for 20 minutes. The obtained supernatant was filtered using a 0.45 μm membrane filter, followed by 10-fold dilution with methanol. The content of itraconazole was measured by HPLC.

Q: Which Solubility in dichloromethane ([1]; dichloromethane) does the source give for CCC(C)n1ncn(-c2ccc(N3CCN(c4ccc(OCC5COC(Cn6cncn6)(c6ccc(Cl)cc6Cl)O5)cc4)CC3)cc2)c1=O (racemic) [Itraconazole, (±)-cis-4-[4-[4-[4-[[2-(2,4-dichlorophenyl)-2-(1H-1,2,4-triazole-1-yl-methyl)-1,3-dioxolane-4-yl]methoxy]phenyl]-1-piperazinyl]phenyl]-2,4-dihydro-2-(1-methylpropyl)-3H-1,2,4-triazole-3-one] here?
A: 239000 µg/mL (≈ 339000 µM)

Q: What about the Solubility in water ([1]; water) of the same molecule?
A: less than 1 μg/ml

Q: What about the solubility at 24 h [2] of the same molecule?
A: 1.5 ± 0.7 µg/mL (≈ 2.13 µM)
